According to patent US4661491A, “Alfuzosine compositions and use” (Synthelabo, priority 1985, dated 1987):

How the values were obtained:
[1] = Clinical study, sphincterometric measurements in patients with dysuria of neurological origin with urethral hypertonia; format: in vivo, human; settings: 5 mg i.v. over 20 min; p<0.001
Description: By means of clinical studies, it has also been possible to show the efficacy of alfuzosine in patients suffering from dysuria of neurological origin with urethral hypertonia.
5 mg of alfuzosine are injected intravenously continuously for a period of 20 min. Sphincterometric measurements were made using an electronic micro-sensor, before and after the injection of the drug, at the bladder neck and at the striated sphincter of the posterior urethra.

[2] = Clinical study in paraplegics, micturition test; format: in vivo, human
Description: A clinical study was also performed in paraplegics.
The paraplegic, or spinal man, gives rise to an experimental model of the peripheral receptors, since he embodies a disconnection from the influence of the higher, diencephalic and cortical nerve centres.
Given the localization of the alpha-adrenergic receptors in the posterior urethra and the vesico-urethral segment or neck, alpha-adrenergic hypertonia is the source of dysuria and disturbances of micturition. The opening of the neck and the fall in the pressure gradient in the posterior urethra are the two conditions required for the production of effective micturition.
Alfuzosine was administered intravenously, and then orally if the first test is positive. 5 mg of alfuzosine are injected intravenously in the course of 20 min.
The test is considered to be positive if an initiation of micturition, that is to say, necessarily, opening of the neck, takes place.
For patients for whom the test is positive, the administration of alfuzosine was then performed orally at the rate of 9 mg/24 h/28 d.

[3] = biological target: T1, α-adrenergic receptors (Oryctolagus cuniculus, UniProt O02824); assay: Phenylephrine-induced contraction of rabbit trigone muscle and urethra preparations; format: biochemical
T1 construct: The bladder and urethra are rapidly removed and placed in lukewarm Krebs solution; from tissue; host or cells: rabbit bladder trigone muscle and urethra ring, isolated organ
T1 sequence (O02824 1-466): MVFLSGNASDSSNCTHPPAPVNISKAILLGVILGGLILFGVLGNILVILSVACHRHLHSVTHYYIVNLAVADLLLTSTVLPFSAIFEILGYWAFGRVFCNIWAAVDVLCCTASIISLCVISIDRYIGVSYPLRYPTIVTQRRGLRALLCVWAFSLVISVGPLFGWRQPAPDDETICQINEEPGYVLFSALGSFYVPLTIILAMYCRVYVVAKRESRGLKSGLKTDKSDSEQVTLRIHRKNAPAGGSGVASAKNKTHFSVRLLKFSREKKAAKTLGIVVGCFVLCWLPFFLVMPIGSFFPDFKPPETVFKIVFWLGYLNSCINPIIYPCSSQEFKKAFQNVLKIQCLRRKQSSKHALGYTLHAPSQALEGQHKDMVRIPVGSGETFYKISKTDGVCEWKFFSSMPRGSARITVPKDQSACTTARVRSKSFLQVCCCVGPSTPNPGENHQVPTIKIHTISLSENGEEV
Description: Male rabbits (CEGAN) weighing 3 to 4 kg are sacrificed by exsanguination and cervical dislocation.
The bladder and urethra are rapidly removed and placed in lukewarm Krebs solution containing bicarbonate.
The composition of this Krebs medium is as follows, in mM: NaCl 114; KCl 4.7; CaCl2 2.5; KH2 PO4 1.2; MgSO4 1.2; NaHCO3 25.0; glucose 11.7; ascorbic acid 1.1. Propranolol (1.0 μM) is added into the Krebs medium to block the β-adrenergic receptors.
The bladder is opened transversely and the "trigone" region of the muscle, located on the dorsal surface of the bladder and between the two ureters, is dissected out.
A 5 mm ring of urethra, from the region situated between the base of the bladder and the prostate, is also prepared.
The portions of trigone muscle and urethra are washed under a tension of 1 g in Krebs medium.
The contraction-response curve to cumulated concentrations of phenylephrine is determined.
Additions of the agonist are performed every 5 min. The tissues are washed until the original tension is reestablished, and are then incubated for 30 min with alfuzosine. A second response curve to phenylephrine is determined in the presence of alfuzosine.
The response curves to concentrations of phenylephrine in the presence or absence of alfuzosine are expressed as a percentage of the maximum response obtained relative to the control curve.
The power of alfuzosine is calculated in the form of pA2 by Schild's method, where pA2 =negative logarithm of the molar concentration of alfuzosine which causes a rightward shift of the response curve to the agonist.

- shift of the response curve to phenylephrine ([3]; alfuzosine 3.0 μM, 30 min incubation, trigone muscle and urethra): significant rightward parallel shift
- Kb ([3]; antagonism of phenylephrine contraction, read-out: pA2 (Schild analysis) (converted)): 89.1 nM
- reduction in the maximum contractile effects of phenylephrine ([3]; trigone muscle and urethra, 30 min): 20 to 30%
Structure (SMILES): COc1cc2nc(N(C)CCCNC(=O)C3CCCO3)nc(N)c2cc1OC (stereo not shown) [Alfuzosine]
- pressure decrease at the bladder neck [1]: 44%
- pressure decrease at the striated sphincter [1]: 39%
- initiation of micturition under oral treatment ([2]; paraplegics positive in i.v. test, per os 9 mg/24 h/28 d): enabled micturition to be rendered easier to initiate
- intra-urethral pressures after injection ([2]; paraplegics, 5 mg i.v. in 20 min): decrease significantly
